Results taken from patent publication US11667949B2, “Reporter construct and biosensor for interferon second messenger 2-5A” (The Trustees of Princeton University, priority 2018, dated 2023).
Where two headings read alike, the source gives them in different places. Numbered stars: 1 amine (or outer) side, 2 acyl side, 3 side chain; on linkers, the order of the positions; unused ones are H or OH. Bridge positions count the residues as written; N and C are the ends. Square brackets hold non-standard residues; d marks the D form. Peptide text beside a SMILES is read from it. I, II: the chains in the order shown. Actinocin(9to1) = Cc1c2oc3c(C)ccc(C(=O)[*:1])c3nc-2c(C(=O)[*:2])c(N)c1=O; NMeV = CN[C@H](C(=O)O)C(C)C; Sar = CNCC(=O)O

Columns and labels:
A549 cells [1] = test: Secreted IFN detection by qPCR in conditioned media; assay type: cell-based, human
Procedure: qRT-PCR analysis: Cells were harvested in 350 μL RLT buffer (Qiagen) and RNA was purified according to the RNeasy protocol (Qiagen). cDNA was prepared using oligo-dT and a High Capacity RNA to cDNA kit (Applied Biosystems). qPCR was performed using the Power SYBR green PCR mix in a 96 well format on StepOnePlus qPCR instrument (Life Technologies). qPCR primers used in this work were from Integrated DNA Technologies and are available via the manufacturer if not specifically recited in the Table below.
Secreted IFN detection by qPCR in conditioned media: A549 WT and RNase L knock out (KO) cells in 12-well plates were transfected with 1 μg/mL poly-IC and lipofectamine 2000 for 0.5, 2 or 6 hours. At the end of the time course, cells were washed four times with 1 mL of growth medium (RPMI+10% FBS) to remove residual poly IC. After the washes, fresh 1 mL medium was added and the cells were kept in fresh media for one hour to allow for protein secretion. Treatments of naive cells with conditioned media were done in a separate 12-well plate and using cells seeded 1 day before the analysis. Naïve cell media was replaced with 1 mL of the conditioned medium from above. Cells were grown in the conditioned media for 16 hours and harvested in 300 μL RLT (Qiagen). For pulse-chase experiments in FIG. 9C, 10 μM anisomycin was added 3 hours after poly-IC addition. Anisomycin level was additionally maintained during the last hour allocated for IFN secretion into fresh media.

HeLa cells [2] = conditions: poly IC 6 hours, <3 kDa flow-through, V6 reporter in vitro
Procedure: In vitro Luminescence assays: The luminescence reactions contained 20 mM Hepes (pH7.4), 100 mM NaCl, 5 mM MgCl2, 5% (vol/vol) glycerol, 1 mM DTT, 3 mM ATP, 250 uM Coenzyme A hydrate (Sigma Aldrich). After adding specified concentrations of reporter protein and 2-5A (p2-5A3, pA3), D-luciferin, Potassium salt (Gold Biotechnology) was added at a final concentration of 400 uM. The reactions were allowed to stabilize for 2 minutes and immediately after luminescence measurements were taken on a plate reader (Berthold Technologies). Acquisition time for the reaction was set to be 10 seconds.
2-5A extraction: HeLa cells treated for 6 hours with 1 ug/ml polyIC were lysed with RIPA (Thermo Fisher Scientific) buffer along with 0.5 mM PMSF protease inhibitor. The lysate was spun down at 12000 g for 10 minutes at 4° C. The supernatant was passed through a 3 KDa centrifugal filter to collect small nucleic acids. An equivalent amount of RNA from mock or polyIC treated sample was added to the luminescence assay.

HeLa cells [3] = conditions: stable monoclonal HeLa reporter cells
Procedure: In an additional experiment, HeLa cells were stably transduced with a lentiviral construct containing the reporter. A monoclonal population of reporter expressing cells was then selected by limiting serial dilution. For reporter assay, these monoclonal cells were seeded at a cell density of 2×10^5 cells per well on 96 well plates. After the cells adhered to the plates (in approximately 6 hours), the cells were pre-treated with 100 uM D-luciferin ethyl ester (1% DMSO) (f/c). After one hour of substrate pre-treatment, poly IC-Lipofectamine complexes were added to the cells along with a second addition of 100 uM D-luciferin substrate. Luminescence measurements were taken on Repeated mode in the plate reader: every 15 minutes for the course of three hours. Luminescence acquisition time: 1 minute/well.

A549 cells [4] = test: Nascent protein synthesis by puromycin pulse labeling; assay type: cell-based, human
Procedure: Ribopuromycilation and ^35S labeling to monitor nascent translation: To generate puromycin-tagged nascent peptides, human cells were treated with 0.1-1 μg/mL of poly-IC for times specified on the figures, after which the growth media was supplemented with 10 μg/mL puromycin (Invitrogen). Puromycin pulse lasted for 5 min. Cells were trypsinized and harvested in NuPAGE LDS sample buffer for western blot analyses. Proteins were separated by 10% BisTris PAGE (NuPAGE), and transferred on PVDF membranes (Life Technologies). The membrane was stained with Ponceau to normalize for sample loading, then washed and blocked with 5% non-fat dry milk in TBST buffer. The membranes were probed with 1:1000 mouse anti-puromycin antibody (EMD Millipore) that binds to de novo synthesized proteins, followed by horseradish peroxidase-conjugated goat anti-mouse secondary antibody (1:10,000, Jackson ImmunoResearch). Metabolic labeling with ^35S was conducted using the following procedure. After cell treatment with poly-IC, media was changed to methionine-free RPMI+10% FBS supplemented with 11 μCi EASY TAG™ EXPRESS35S Protein Labeling Mix (Perkin Elmer). Cellular proteins were resolved by 10% BisTris PAGE (NuPAGE) and analyzed by phosphorimaging.

HeLa cells [5] = test: Reporter assay in live cells transfected with V6 or Y312A V6 constructs; assay type: cell-based, human
Procedure: Reporter assay in live cells: NLS and NES tag sequences cloned in the reporter immediately following the FLAG tag were […] (SEQ ID NO: 4) and […] (SEQ ID NO: 5), respectively. […] These 96 well plates were clear bottom and white for optimum luminescence readings. […] Luminescence acquisition time: 1 minute/well.

RNase L = target: T1, RNase L (Homo sapiens, UniProt Q05823); conditions: cited from earlier work
T1 sequence (Q05823 1-741): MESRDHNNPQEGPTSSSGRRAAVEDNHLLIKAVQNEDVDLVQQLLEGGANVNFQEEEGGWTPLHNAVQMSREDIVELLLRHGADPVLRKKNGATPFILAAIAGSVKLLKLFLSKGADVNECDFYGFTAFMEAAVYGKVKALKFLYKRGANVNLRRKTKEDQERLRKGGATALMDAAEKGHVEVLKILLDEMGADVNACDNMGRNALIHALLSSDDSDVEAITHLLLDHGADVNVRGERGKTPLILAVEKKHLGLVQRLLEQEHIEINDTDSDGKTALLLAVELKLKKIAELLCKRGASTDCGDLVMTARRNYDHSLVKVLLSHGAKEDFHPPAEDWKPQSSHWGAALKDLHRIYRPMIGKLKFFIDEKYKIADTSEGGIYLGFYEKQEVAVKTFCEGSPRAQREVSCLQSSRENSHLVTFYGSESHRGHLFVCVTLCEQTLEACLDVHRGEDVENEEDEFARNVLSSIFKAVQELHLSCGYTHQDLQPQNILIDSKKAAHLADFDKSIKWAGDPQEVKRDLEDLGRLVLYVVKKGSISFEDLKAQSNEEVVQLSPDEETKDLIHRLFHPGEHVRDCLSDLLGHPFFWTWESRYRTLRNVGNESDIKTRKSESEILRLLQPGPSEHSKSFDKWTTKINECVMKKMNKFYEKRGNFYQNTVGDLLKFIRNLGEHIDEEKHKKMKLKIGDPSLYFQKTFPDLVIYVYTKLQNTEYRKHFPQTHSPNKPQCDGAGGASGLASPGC

A549 cells [6] = test: Live cell 2-5A measurements in A549 cells stably expressing FLAG-V6 biosensor; assay type: cell-based, human; conditions: pre-treatment before poly-IC
Procedure: Live cell 2-5A measurements in stable cell lines expressing V6 or V6-Y312A reporters: A549 or HeLa cells stably expressing V6 or V6-Y312A control reporters were seeded at a density of 1·10^4 /well on TC-treated, clear flat bottom white 96-well plates. Before transfection with poly-IC, cells were pre-treated with 100 μM D-luciferin ethyl ester (1% DMSO) (f/c) (Marker Gene Technologies). After one hour of substrate pre-treatment, a poly-IC/lipofectamine complex (1 μg/mL Poly-IC+0.5 μL Lipofectamine 2000 in a final volume of 100 μL) was added to the cells along with a second addition of 100 μM D-luciferin and HEPES (pH 7.5; 20 mM f/c). Dilutions of poly-IC were made by diluting the poly-IC/lipofectamine complexes. Luminescence measurements were taken in repeat-mode using plate reader at time intervals shown on the figures. After three hours, fresh D-luciferin ethyl ester (100 μM) was re-supplied at every hour to ensure excess reporter substrate. Luminescence acquisition time was one minute per well. For IFN-β pre-treatment, a dose of 1000 U/mL (f/c) was used 24 hours before poly-IC treatment.

## COc1ccc(C[C@H]2NC[C@H](O)[C@H]2OC(C)=O)cc1 [anisomycin]
A549 cells [1]; 10 μM anisomycin added 3 hours after poly-IC, before the IFN response
  IFN production (IFN activity in the media): blocked IFN production
A549 cells [1]; naïve cells, control experiment
  effect on ISG mRNAs: mild stimulatory effect

## poly-Inosine/poly-Cytidine [poly IC]
HeLa cells [2]
  stimulation of the reporter by nucleic acids from poly IC treated vs mock treated cells: roughly 8 fold
HeLa cells [3]; 30 mins
  2-5A build-up, fold change with poly IC vs without poly IC: 3.7 fold
HeLa cells [3]; 3.5 hours after poly IC treatment
  maximum fold change of reporter: 28 fold
A549 cells [1]; media of poly I:C-treated WT and RNase L−/− cells, time points beyond translational arrest
  ISG induction by conditioned media: two orders of magnitude
A549 cells [4]; WT A549 cells, before ISG induction
  global translation: halted global translation
HeLa cells [5]; 30 minutes
  2-5A build-up, fold, poly IC treated vs untreated cells: 2.4 fold
HeLa cells [5]; 3 hours post poly IC treatment
  maximum fold change of reporter: 30 fold

## 2′-5′-linked oligoadenylates [2-5A]
RNase L
  affinity for latent RNase L: sub-nanomolar
A549 cells [4]; 2-5A activated RNase L
  attenuation of basal cell-wide translation: more than 1,000 fold

## Cc1c2oc3c(C)ccc(C(=O)N[C@@H]4C(=O)N[C@H](C(C)C)C(=O)N5CCC[C@H]5C(=O)N(C)CC(=O)N(C)[C@@H](C(C)C)C(=O)O[C@@H]4C)c3nc-2c(C(=O)N[C@@H]2C(=O)N[C@H](C(C)C)C(=O)N3CCC[C@H]3C(=O)N(C)CC(=O)N(C)[C@@H](C(C)C)C(=O)O[C@@H]2C)c(N)c1=O [Actinomycin D] (I: T[dV]P[Sar][NMeV] / II: T[dV]P[Sar][NMeV]; ester I:1-I:C, II:1-II:C; linker I:N-II:N via Actinocin(9to1))
A549 cells [6]
  OAS/RNase L activation after pre-treatment with transcription inhibitor: not inhibited
